Test systems include DLD-1 colon; DMS 273 small cell lung; HOP-18 NSCLC; KM20L2 colon; LXFL 529 NSCLC; M19-MEL melanoma; MDA-N; P388/ADR leukemia; XF 498 CNS.
Assay in all cases: NCI tumour cell line growth inhibition, 48 h

Values joined by “and” are separate entries in the source; they are usually repeats but may differ in a detail not shown here. Equal entries are not always repeated.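 Briefly, cells in 96-well plates were exposed to five compound concentrations for 48 h, and endpoints were estimated by linear interpolation. At the GI50, growth is halved. TGI: concentration producing complete growth inhibition.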

In the case of `COc1cc(C2c3cc4c(cc3[C@@H](Nc3ccc(F)cc3)C3COC(=O)[C@H]23)OCO4)cc(OC)c1O` (stereo partly specified), the TGI in the experiment with DLD-1 colon was 28.5 µM; with DMS 273 small cell lung, 6.46 µM; in the experiment on HOP-18 NSCLC, 46.8 µM; with KM20L2 colon, 19.8 µM; in the experiment with LXFL 529 NSCLC, 46.6 µM; in the experiment on M19-MEL melanoma it was 42.8 µM. The TGI with MDA-N is > 100 µM; in the experiment on P388/ADR leukemia it was 1.63 µM; in the experiment on XF 498 CNS, 18.2 µM. For the same molecule, the results for the GI50 in the experiment with DMS 273 small cell lung and with XF 498 CNS were 0.403 µM and 718 nM, respectively.

As for `COc1cc([C@@H]2c3cc4c(cc3[C@@H](OC3OC5COC(C)OC5C(O)C3O)[C@H]3COC(=O)[C@H]23)OCO4)cc(OC)c1O` (stereo partly specified), the GI50 in the experiment on DMS 273 small cell lung is 58.8 µM; in the experiment with MDA-N it was 18.6 µM. Moreover, the TGI with DMS 273 small cell lung is 32.9 µM; in the experiment with HOP-18 NSCLC, 121 µM and 232 µM; in the experiment with KM20L2 colon it was 133 µM and 225 µM; with LXFL 529 NSCLC it was 218 µM; with M19-MEL melanoma, 50.3 µM and 332 µM; with MDA-N it was 4.36 µM. The TGI is 411 µM in the experiment on P388/ADR leukemia; 73.6 µM and 71.1 µM in the experiment on XF 498 CNS.

The values are drawn from PubChem BioAssay (NCI).
